Like-named read-outs stand apart in the source and are kept apart here.
Key:
Assay type in all cases: cell-based
[1] = tested on: Bacillus subtilis; test: Minimum inhibitory concentration against bacteria, strain F; settings: 24 hours at 30° C.; tested at 100 and 300 mg/liter
Method: (§1) Overnight cultures, grown in Caso peptone bouillon (Merck) of the various strains of bacteria: (A) Proteus vulgaris, (B) Pseudomonas aeruginosa, (C) Enterobacter aerogenes, (D) Serratia marcencens, (E) Alcaligenes denitrificans and (F) Bacillus subtilis are each diluted in a ratio of 1/1000 in saline solution. Sufficient of the suspensions is put into Caso peptone bouillon to dilute the bacteria again in the ratio of 1/1000. Each of the compounds listed in Table 1 is then added in amounts of 100 and 300 mg/liter. After being incubated for 24 hours at 30° C. in a shaking waterbath, the turbidity of the samples is evaluated.

[2] = tested on: Aspergillus phoenicis; test: Minimum inhibitory concentration against fungi, agar incorporation test, strain L; settings: malt extract/agar
Method: (§2) The invention is carried out using the known agar incorporation test in the following fungi:
(L) Aspergillus phoenicis
(§3) in a malt extract/agar (Merck). Inhibition is effected by adding sufficient of each of the various compounds to give final concentrations in the agar of 2, 5, 10, 50 and 100 mg/liter. The concentrations (mg/liters) required to inhibit the growth of the fungi (starting from traces of fungi added dropwise) are illustrated in Table 3.

[3] = tested on: Chlorella vulgaris; test: Action against algae: Chlorella vulgaris; set-up: key: --: no growth on the agar, 3 ppm have destroyed the algae in 6 hours; settings: 3 mg/liter; for Growth on the agar (algae-destroying action): 6 hours exposure, 14 days incubation; for Growth in the medium (growth inhibition): 14 days
Method: Cultures of Chlorella vulgaris which had been grown for 14 days in algae nutrient media are diluted in the ratio 1/200 in the algae nutrient medium. Each of the compounds listed in Table 1 is then added in such an amount as to give a final concentration of 3 mg/liter. After incubating for 6 hours, 10 μl of each culture are withdrawn and added dropwise to algae/agar in order to determine the destructive action. After the cultures have incubated for 14 days under illumination (14 hours of light and 10 hours of darkness, alternately), the growth in the algae medium (determination of growth inhibition) and on the algae/agar (determination of algae-destroying action) is assessed visually.

[4] = tested on: Cladosporium cladosporioides; test: Minimum inhibitory concentration against fungi, agar incorporation test, strain O; settings: malt extract/agar
Method: as §2
(O) Cladosporium cladosporioides
as §3

[5] = tested on: Aureobasidium pullulans; test: Minimum inhibitory concentration against fungi, agar incorporation test, strain R; settings: malt extract/agar
Method: as §2
(R) Aureobasidium pullulans
as §3

[6] = tested on: Aspergillus niger; test: Minimum inhibitory concentration against fungi, agar incorporation test, strain K; settings: malt extract/agar
Method: as §2, §3

[7] = tested on: Alternaria alternata; test: Minimum inhibitory concentration against fungi, agar incorporation test, strain N; settings: malt extract/agar
Method: as §2, §3

[8] = tested on: Candida albicans; test: Minimum inhibitory concentration against fungi, agar incorporation test, strain P; settings: malt extract/agar
Method: as §2, §3

[9] = tested on: Chaetomium globosum; test: Minimum inhibitory concentration against fungi, agar incorporation test, strain S; settings: malt extract/agar
Method: as §2, §3

[10] = tested on: Serratia marcencens; test: Minimum inhibitory concentration against bacteria, strain D; settings: 24 hours at 30° C.; tested at 100 and 300 mg/liter
Method: as §1

[11] = tested on: Proteus vulgaris; test: Minimum inhibitory concentration against bacteria, strain A; settings: 24 hours at 30° C.; tested at 100 and 300 mg/liter
Method: as §1

[12] = tested on: Enterobacter aerogenes; test: Minimum inhibitory concentration against bacteria, strain C; settings: 24 hours at 30° C.; tested at 100 and 300 mg/liter
Method: as §1

[13] = tested on: Endomyces geotrichum; test: Minimum inhibitory concentration against fungi, agar incorporation test, strain Q; settings: malt extract/agar
Method: as §2, §3

[14] = tested on: Alcaligenes denitrificans; test: Minimum inhibitory concentration against bacteria, strain E; settings: 24 hours at 30° C.; tested at 100 and 300 mg/liter
Method: as §1

[15] = tested on: Pseudomonas aeruginosa; test: Minimum inhibitory concentration against bacteria, strain B; settings: 24 hours at 30° C.; tested at 100 and 300 mg/liter
Method: as §1

[16] = tested on: Penicillium funiculosum; test: Minimum inhibitory concentration against fungi, agar incorporation test, strain M; settings: malt extract/agar
Method: as §2
(M) Penicillium funiculosum
as §3

[17] = tested on: mixed culture of bacteria; set-up: key: +: growth, no destruction; (+): growth less than that of control (>10 colonies), slight destruction; (-): slight growth (1-10 colonies); -: no growth, destruction
[18] = 5 mg/l, culture diluted 1/1000 in Tyrode
[19] = 5 mg/l, culture diluted 1/10000 in Tyrode
[20] = 10 mg/l, culture diluted 1/1000 in Tyrode
[21] = 10 mg/l, culture diluted 1/10000 in Tyrode
[22] = 30 mg/l, culture diluted 1/1000 in Tyrode
[23] = 30 mg/l, culture diluted 1/10000 in Tyrode
[24] = 60 mg/l, culture diluted 1/1000 in Tyrode
[25] = 60 mg/l, culture diluted 1/10000 in Tyrode
[26] = 100 mg/l, culture diluted 1/1000 in Tyrode
[27] = 100 mg/l, culture diluted 1/10000 in Tyrode

CCCCCCCCCCCCC(=O)NCCC[N+](C)(C)CC(N)=O.CCC[CH2][Sn-]([Cl])([Cl])([CH2]CCC)[CH2]CCC [Example 30, (C12 H25 CO)NH(CH2) 3 N(CH3)2 (CH2 CONH2) / Tributyldichloro]
MIC against bacteria, strain F [1]: 100 µg/mL
MIC against fungi, strain L [2]: ≤ 5 µg/mL
Growth on the agar (algae-destroying action) [3]: --
Growth in the medium (growth inhibition) [3]: --
MIC against fungi, strain O [4]: ≤ 5 µg/mL
MIC against fungi, strain R [5]: ≤ 5 µg/mL
MIC against fungi, strain K [6]: ≤ 5 µg/mL
MIC against fungi, strain N [7]: ≤ 5 µg/mL
MIC against fungi, strain P [8]: ≤ 5 µg/mL
MIC against fungi, strain S [9]: ≤ 5 µg/mL
MIC against bacteria, strain D [10]: 100 µg/mL
MIC against bacteria, strain A [11]: 100 µg/mL
MIC against bacteria, strain C [12]: 100 µg/mL
MIC against fungi, strain Q [13]: 10 µg/mL
MIC against bacteria, strain E [14]: 100 µg/mL
MIC against bacteria, strain B [15]: 100 µg/mL
MIC against fungi, strain M [16]: 10 µg/mL

CCC[CH2][Sn-]([Cl])([Cl])([CH2]CCC)[CH2]CCC.CCC[CH2][Sn-]([Cl])([Cl])([CH2]CCC)[CH2]CCC.C[N+](C)(C)CCCCCC[N+](C)(C)C [Example 23, (CH3)3 N(CH2)6 N(CH3)3 / Tributyldichloro]
MIC against bacteria, strain F [1]: 100 µg/mL
MIC against fungi, strain L [2]: 10 µg/mL
Growth on the agar (algae-destroying action) [3]: --
Growth in the medium (growth inhibition) [3]: --
MIC against fungi, strain O [4]: ≤ 5 µg/mL
MIC against fungi, strain R [5]: ≤ 5 µg/mL
MIC against fungi, strain K [6]: 10 µg/mL
MIC against fungi, strain N [7]: ≤ 5 µg/mL
MIC against fungi, strain P [8]: ≤ 5 µg/mL
MIC against fungi, strain S [9]: ≤ 5 µg/mL
MIC against bacteria, strain D [10]: > 300 µg/mL
MIC against bacteria, strain A [11]: 100 µg/mL
MIC against bacteria, strain C [12]: 300 µg/mL
MIC against fungi, strain Q [13]: 10 µg/mL
MIC against bacteria, strain E [14]: 300 µg/mL
MIC against bacteria, strain B [15]: 100 µg/mL
MIC against fungi, strain M [16]: 10 µg/mL

CCCCCCCCCCCC[N+](C)(C)C.CCC[CH2][Sn-]([Cl])([Cl])([CH2]CCC)[CH2]CCC [Example 16, (CH3)3 NC12 H25 / Tributyldichloro]
MIC against bacteria, strain F [1]: 100 µg/mL
MIC against fungi, strain L [2]: 2 µg/mL
Growth on the agar (algae-destroying action) [3]: --
Growth in the medium (growth inhibition) [3]: --
MIC against fungi, strain O [4]: 2 µg/mL
MIC against fungi, strain R [5]: 2 µg/mL
MIC against fungi, strain K [6]: 2 µg/mL
MIC against fungi, strain N [7]: 2 µg/mL
MIC against fungi, strain P [8]: 5 µg/mL
MIC against fungi, strain S [9]: 2 µg/mL
MIC against bacteria, strain D [10]: 100 µg/mL
MIC against bacteria, strain A [11]: 100 µg/mL
MIC against bacteria, strain C [12]: 100 µg/mL
MIC against fungi, strain Q [13]: 50 µg/mL
MIC against bacteria, strain E [14]: 100 µg/mL
MIC against bacteria, strain B [15]: 100 µg/mL
MIC against fungi, strain M [16]: 5 µg/mL

CCCCCCCCCCCCCCCCCC[N+](C)(C)C.CCC[CH2][Sn-]([Cl])([Cl])([CH2]CCC)[CH2]CCC [Example 18, (CH3)3 NC18 H37 / Tributyldichloro]
Growth (destruction of a mixed culture of bacteria) [17, 18]: +
Growth (destruction of a mixed culture of bacteria) [17, 19]: (+) (growth less than that of control (>10 colonies), slight destruction)
Growth (destruction of a mixed culture of bacteria) [17, 20]: +
Growth (destruction of a mixed culture of bacteria) [17, 21]: (-) (slight growth (1-10 colonies))
Growth (destruction of a mixed culture of bacteria) [17, 22]: (+) (growth less than that of control (>10 colonies), slight destruction)
Growth (destruction of a mixed culture of bacteria) [17, 23]: -
Growth (destruction of a mixed culture of bacteria) [17, 24]: (+) (growth less than that of control (>10 colonies), slight destruction)
Growth (destruction of a mixed culture of bacteria) [17, 25]: -
Growth (destruction of a mixed culture of bacteria) [17, 26]: (-) (slight growth (1-10 colonies))
Growth (destruction of a mixed culture of bacteria) [17, 27]: -
MIC against fungi, strain L [2]: 2 µg/mL
Growth on the agar (algae-destroying action) [3]: --
Growth in the medium (growth inhibition) [3]: --
MIC against fungi, strain O [4]: 2 µg/mL
MIC against fungi, strain R [5]: 2 µg/mL
MIC against fungi, strain K [6]: 2 µg/mL
MIC against fungi, strain N [7]: 2 µg/mL
MIC against fungi, strain P [8]: 5 µg/mL
MIC against fungi, strain S [9]: 2 µg/mL
MIC against fungi, strain Q [13]: 10 µg/mL
MIC against fungi, strain M [16]: 5 µg/mL

C14 H29 (CH3)2NCH2CHOHCH2 OH / Tributyldichloro [Example 21]
MIC against bacteria, strain F [1]: 100 µg/mL
MIC against fungi, strain L [2]: ≤ 5 µg/mL
Growth on the agar (algae-destroying action) [3]: --
Growth in the medium (growth inhibition) [3]: --
MIC against fungi, strain O [4]: ≤ 5 µg/mL
MIC against fungi, strain R [5]: ≤ 5 µg/mL
MIC against fungi, strain K [6]: ≤ 5 µg/mL
MIC against fungi, strain N [7]: ≤ 5 µg/mL
MIC against fungi, strain P [8]: ≤ 5 µg/mL
MIC against fungi, strain S [9]: ≤ 5 µg/mL
MIC against bacteria, strain D [10]: 100 µg/mL
MIC against bacteria, strain A [11]: 100 µg/mL
MIC against bacteria, strain C [12]: 100 µg/mL
MIC against fungi, strain Q [13]: ≤ 5 µg/mL
MIC against bacteria, strain E [14]: 100 µg/mL
MIC against bacteria, strain B [15]: 100 µg/mL
MIC against fungi, strain M [16]: ≤ 5 µg/mL

CCCCCCCCCCCCCCCC[N+](C)(C)C.CCC[CH2][Sn-]([Cl])([Cl])([CH2]CCC)[CH2]CCC [Example 17, (CH3)3 NC16 H33 / Tributyldichloro]
Growth (destruction of a mixed culture of bacteria) [17, 18]: +
Growth (destruction of a mixed culture of bacteria) [17, 19]: (+) (growth less than that of control (>10 colonies), slight destruction)
Growth (destruction of a mixed culture of bacteria) [17, 20]: +
Growth (destruction of a mixed culture of bacteria) [17, 21]: (+) (growth less than that of control (>10 colonies), slight destruction)
Growth (destruction of a mixed culture of bacteria) [17, 22]: (+) (growth less than that of control (>10 colonies), slight destruction)
Growth (destruction of a mixed culture of bacteria) [17, 23]: -
Growth (destruction of a mixed culture of bacteria) [17, 24]: -
Growth (destruction of a mixed culture of bacteria) [17, 25]: -
Growth (destruction of a mixed culture of bacteria) [17, 26]: -
Growth (destruction of a mixed culture of bacteria) [17, 27]: -
MIC against fungi, strain L [2]: 2 µg/mL
Growth on the agar (algae-destroying action) [3]: --
Growth in the medium (growth inhibition) [3]: --
MIC against fungi, strain O [4]: 2 µg/mL
MIC against fungi, strain R [5]: 2 µg/mL
MIC against fungi, strain K [6]: 2 µg/mL
MIC against fungi, strain N [7]: 2 µg/mL
MIC against fungi, strain P [8]: 5 µg/mL
MIC against fungi, strain S [9]: 2 µg/mL
MIC against fungi, strain Q [13]: 10 µg/mL
MIC against fungi, strain M [16]: 5 µg/mL

CCCCCCCCCCCC[N+](C)(C)O.CCC[CH2][Sn-]([Cl])([Cl])([CH2]CCC)[CH2]CCC [Example 14, (CH3)2 N(OH)C12 H25 / Tributyldichloro]
MIC against bacteria, strain F [1]: 100 µg/mL
MIC against fungi, strain L [2]: 2 µg/mL
Growth on the agar (algae-destroying action) [3]: --
Growth in the medium (growth inhibition) [3]: --
MIC against fungi, strain O [4]: 2 µg/mL
MIC against fungi, strain R [5]: 2 µg/mL
MIC against fungi, strain K [6]: 2 µg/mL
MIC against fungi, strain N [7]: 2 µg/mL
MIC against fungi, strain P [8]: 5 µg/mL
MIC against fungi, strain S [9]: 2 µg/mL
MIC against bacteria, strain D [10]: 300 µg/mL
MIC against bacteria, strain A [11]: 100 µg/mL
MIC against bacteria, strain C [12]: > 300 µg/mL
MIC against fungi, strain Q [13]: 10 µg/mL
MIC against bacteria, strain E [14]: 300 µg/mL
MIC against bacteria, strain B [15]: 100 µg/mL
MIC against fungi, strain M [16]: 5 µg/mL
